Reference: ChEMBL document CHEMBL5233210, “Pyrazolone structural motif in medicinal chemistry: Retrospect and prospect” (Eur J Med Chem, 2020)
In brackets after ≈: the same amount, converted by molar mass.

Columns and labels:
[1] = target: Aldo-keto reductase family 1 member B1 (Homo sapiens, UniProt P15121); assay: Inhibition of aldose reductase (unknown origin)
[2] = target: T1, Amine oxidase [flavin-containing] A (Homo sapiens, UniProt P21397); assay: Inhibition of MAO-A (unknown origin) relative to control
T1 sequence (P21397 whole entry): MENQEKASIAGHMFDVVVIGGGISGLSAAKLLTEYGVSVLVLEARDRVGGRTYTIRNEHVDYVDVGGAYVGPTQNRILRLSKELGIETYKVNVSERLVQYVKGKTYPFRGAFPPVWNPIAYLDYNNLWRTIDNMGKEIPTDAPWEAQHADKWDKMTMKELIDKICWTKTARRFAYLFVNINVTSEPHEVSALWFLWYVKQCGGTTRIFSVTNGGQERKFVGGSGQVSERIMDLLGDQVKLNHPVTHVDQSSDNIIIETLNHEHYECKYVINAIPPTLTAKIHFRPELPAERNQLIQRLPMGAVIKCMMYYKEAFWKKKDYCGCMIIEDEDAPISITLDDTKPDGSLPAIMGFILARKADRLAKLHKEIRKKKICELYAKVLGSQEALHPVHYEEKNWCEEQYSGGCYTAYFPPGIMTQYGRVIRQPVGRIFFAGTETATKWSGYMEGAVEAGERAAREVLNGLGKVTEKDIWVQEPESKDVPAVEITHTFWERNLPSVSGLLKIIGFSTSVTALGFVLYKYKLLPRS

Acetylcholinesterase = Acetylcholinesterase (Electrophorus electricus, UniProt O42275); assay: Inhibition of electric eel AChE
Sequence of Acetylcholinesterase (O42275 whole entry): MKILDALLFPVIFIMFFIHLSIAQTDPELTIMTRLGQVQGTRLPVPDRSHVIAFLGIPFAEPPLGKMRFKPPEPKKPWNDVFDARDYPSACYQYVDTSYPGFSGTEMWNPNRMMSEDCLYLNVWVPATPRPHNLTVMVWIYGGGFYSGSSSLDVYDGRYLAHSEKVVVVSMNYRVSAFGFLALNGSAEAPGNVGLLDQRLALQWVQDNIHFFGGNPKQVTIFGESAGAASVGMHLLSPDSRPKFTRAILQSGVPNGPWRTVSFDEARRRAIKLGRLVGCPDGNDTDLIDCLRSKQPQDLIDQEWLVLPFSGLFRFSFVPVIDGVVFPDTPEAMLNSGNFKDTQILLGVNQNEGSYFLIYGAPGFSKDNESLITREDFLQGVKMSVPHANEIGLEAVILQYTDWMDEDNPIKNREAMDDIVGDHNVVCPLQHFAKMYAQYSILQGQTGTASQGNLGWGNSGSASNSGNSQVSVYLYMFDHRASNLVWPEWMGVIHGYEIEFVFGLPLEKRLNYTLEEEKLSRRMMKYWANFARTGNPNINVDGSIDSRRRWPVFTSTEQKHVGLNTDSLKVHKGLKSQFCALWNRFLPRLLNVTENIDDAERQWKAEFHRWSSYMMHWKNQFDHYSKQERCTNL

[3] = target: Cholinesterase (Equus caballus) (UniProt P81908); assay: Inhibition of equine serum BChE at 10^-3 M relative to control; format: cell-free; details: dose 1.0 10^-3M
Sequence of Cholinesterase (Equus caballus) (P81908 whole entry): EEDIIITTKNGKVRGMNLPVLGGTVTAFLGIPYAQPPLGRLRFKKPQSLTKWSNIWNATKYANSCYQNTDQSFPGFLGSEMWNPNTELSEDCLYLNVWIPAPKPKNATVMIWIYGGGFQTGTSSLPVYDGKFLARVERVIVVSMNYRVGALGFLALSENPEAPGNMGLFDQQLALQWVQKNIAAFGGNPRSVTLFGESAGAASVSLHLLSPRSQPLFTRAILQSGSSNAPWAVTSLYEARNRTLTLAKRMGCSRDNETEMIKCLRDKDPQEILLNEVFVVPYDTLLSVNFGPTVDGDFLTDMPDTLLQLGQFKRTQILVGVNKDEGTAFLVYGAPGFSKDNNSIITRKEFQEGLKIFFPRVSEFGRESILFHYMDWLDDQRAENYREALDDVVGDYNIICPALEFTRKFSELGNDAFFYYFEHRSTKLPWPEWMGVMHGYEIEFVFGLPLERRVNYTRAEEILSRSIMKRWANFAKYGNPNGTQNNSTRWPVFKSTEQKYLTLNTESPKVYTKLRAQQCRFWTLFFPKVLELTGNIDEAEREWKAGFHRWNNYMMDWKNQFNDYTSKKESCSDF

[4] = target: T2, Amine oxidase [flavin-containing] B (Homo sapiens, UniProt P27338); assay: Inhibition of human MAO-B
T2 sequence (P27338 whole entry): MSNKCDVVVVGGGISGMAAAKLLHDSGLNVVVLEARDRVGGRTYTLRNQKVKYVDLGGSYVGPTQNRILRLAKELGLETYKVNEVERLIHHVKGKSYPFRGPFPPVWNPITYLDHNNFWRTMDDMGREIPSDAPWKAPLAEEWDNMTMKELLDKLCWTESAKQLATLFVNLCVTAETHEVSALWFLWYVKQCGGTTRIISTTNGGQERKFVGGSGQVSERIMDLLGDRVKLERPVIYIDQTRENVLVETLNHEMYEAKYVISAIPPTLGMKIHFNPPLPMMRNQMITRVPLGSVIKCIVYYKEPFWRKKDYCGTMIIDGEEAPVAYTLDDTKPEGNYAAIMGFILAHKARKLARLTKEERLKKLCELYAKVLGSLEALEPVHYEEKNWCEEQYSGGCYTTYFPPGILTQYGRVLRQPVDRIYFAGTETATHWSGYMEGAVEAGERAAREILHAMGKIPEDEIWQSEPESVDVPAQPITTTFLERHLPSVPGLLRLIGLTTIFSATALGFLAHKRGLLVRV

Homo sapiens = species on record: Homo sapiens; assay: Selectivity index, ratio of Ki for human MAO-B to Ki for human MAO-A
[5] = target: Amine oxidase [flavin-containing] A (Rattus norvegicus, UniProt P21396); assay: Inhibition of rat brain synaptosome MAO-A; format: subcellular
Sequence of Amine oxidase [flavin-containing] A (Rattus norvegicus, UniProt P21396) (P21396 whole entry): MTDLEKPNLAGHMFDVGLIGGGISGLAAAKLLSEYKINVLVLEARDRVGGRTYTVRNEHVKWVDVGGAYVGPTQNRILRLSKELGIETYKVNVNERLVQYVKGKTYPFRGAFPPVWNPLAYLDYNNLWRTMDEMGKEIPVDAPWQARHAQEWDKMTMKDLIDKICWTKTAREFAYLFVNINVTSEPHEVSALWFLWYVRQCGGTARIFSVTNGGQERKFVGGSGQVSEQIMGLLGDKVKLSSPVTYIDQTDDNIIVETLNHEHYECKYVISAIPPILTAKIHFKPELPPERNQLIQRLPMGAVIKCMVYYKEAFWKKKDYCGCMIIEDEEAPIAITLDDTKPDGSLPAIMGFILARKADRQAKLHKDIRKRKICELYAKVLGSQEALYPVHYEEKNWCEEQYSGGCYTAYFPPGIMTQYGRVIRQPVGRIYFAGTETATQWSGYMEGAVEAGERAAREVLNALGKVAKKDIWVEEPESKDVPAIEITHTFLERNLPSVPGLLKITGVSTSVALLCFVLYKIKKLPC

[6] = target: T1, Amine oxidase [flavin-containing] A; assay: Inhibition of human MAO-A
[7] = target: Amine oxidase [flavin-containing] B (Rattus norvegicus, UniProt P19643); assay: Inhibition of rat brain synaptosome MAO-B; format: subcellular
Sequence of Amine oxidase [flavin-containing] B (Rattus norvegicus, UniProt P19643) (P19643 whole entry): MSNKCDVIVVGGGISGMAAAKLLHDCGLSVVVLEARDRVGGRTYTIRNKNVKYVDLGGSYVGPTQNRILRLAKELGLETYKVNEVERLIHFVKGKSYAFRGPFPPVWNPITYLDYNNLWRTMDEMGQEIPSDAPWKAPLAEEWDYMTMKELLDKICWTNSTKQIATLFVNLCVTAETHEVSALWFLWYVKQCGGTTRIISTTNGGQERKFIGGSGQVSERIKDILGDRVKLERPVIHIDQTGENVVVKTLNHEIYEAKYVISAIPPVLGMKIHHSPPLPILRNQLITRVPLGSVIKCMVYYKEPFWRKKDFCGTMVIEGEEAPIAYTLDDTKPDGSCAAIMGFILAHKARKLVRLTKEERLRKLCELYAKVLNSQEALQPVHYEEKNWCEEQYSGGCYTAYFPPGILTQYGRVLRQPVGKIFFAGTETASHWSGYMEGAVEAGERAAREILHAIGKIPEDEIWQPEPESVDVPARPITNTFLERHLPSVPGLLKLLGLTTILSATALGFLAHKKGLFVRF

[8] = tested on: Mycobacterium tuberculosis; assay: Antibacterial activity against Mycobacterium tuberculosis H37Rv; format: functional
[9] = Selectivity index, ratio of IC50 mouse […] 3T3 cells to MIC for Mycobacterium tuberculosis H37Rv; format: toxicity; details: NIH 3T3 cells, read-out: Selectivity Index
[10] = Selectivity index, ratio of CC50 african green monkey Vero cells to IC50 for Mycobacterium tuberculosis; format: toxicity; details: read-out: Ratio CC50/IC50
[11] = tested on: Mycobacterium tuberculosis; assay: Antibacterial activity against Mycobacterium tuberculosis; format: functional, organism-based
[12] = target: T2, Amine oxidase [flavin-containing] B; assay: Inhibition of MAO-B (unknown origin)
[13] = target: Glycogen synthase kinase-3 beta (Homo sapiens, UniProt P49841); assay: Inhibition of human GSK-3beta
Sequence of Glycogen synthase kinase-3 beta (P49841 whole entry): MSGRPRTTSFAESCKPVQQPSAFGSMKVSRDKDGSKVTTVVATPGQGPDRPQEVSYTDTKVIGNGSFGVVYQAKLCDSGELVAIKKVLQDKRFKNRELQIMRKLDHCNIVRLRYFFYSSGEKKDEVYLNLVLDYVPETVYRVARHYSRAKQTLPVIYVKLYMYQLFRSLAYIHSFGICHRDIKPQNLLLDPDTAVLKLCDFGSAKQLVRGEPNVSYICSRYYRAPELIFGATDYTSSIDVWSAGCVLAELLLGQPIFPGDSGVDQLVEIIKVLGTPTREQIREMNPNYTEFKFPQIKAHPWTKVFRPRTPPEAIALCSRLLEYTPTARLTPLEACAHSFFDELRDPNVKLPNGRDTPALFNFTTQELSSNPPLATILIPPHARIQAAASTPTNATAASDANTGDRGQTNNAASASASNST

Mus musculus [14] = species on record: Mus musculus; assay: Anticonvulsant activity in mouse by MES test; format: functional
Liver carboxylesterase 1 = Liver carboxylesterase 1 (Homo sapiens, UniProt P23141); assay: Inhibition of human CE1
Sequence of Liver carboxylesterase 1 (P23141 whole entry): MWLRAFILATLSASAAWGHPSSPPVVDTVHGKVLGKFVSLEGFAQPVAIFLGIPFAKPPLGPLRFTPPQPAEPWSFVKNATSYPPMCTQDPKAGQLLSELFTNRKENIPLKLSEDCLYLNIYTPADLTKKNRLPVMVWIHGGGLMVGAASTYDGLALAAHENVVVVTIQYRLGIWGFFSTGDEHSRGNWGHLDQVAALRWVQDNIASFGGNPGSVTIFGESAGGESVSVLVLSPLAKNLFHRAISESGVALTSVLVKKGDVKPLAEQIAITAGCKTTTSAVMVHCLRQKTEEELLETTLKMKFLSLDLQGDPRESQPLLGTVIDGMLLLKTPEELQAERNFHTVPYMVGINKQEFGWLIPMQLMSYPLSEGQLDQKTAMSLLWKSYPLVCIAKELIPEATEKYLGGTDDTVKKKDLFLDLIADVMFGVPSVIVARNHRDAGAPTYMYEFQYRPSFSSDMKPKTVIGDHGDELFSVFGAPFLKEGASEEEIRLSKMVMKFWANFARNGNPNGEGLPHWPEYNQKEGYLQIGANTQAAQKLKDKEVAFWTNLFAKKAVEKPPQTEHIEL

PC-12 [15] = assay: Anti amyotrophic lateral sclerosis activity in rat PC-12 cells assessed as decrease in G93A SOD1 aggregate formation relative to control; format: functional; design: scale not given: the % may be the effect or the level left
PC-12 [16] = assay: Anti amyotrophic lateral sclerosis activity in rat PC-12 cells assessed as decrease in G93A SOD1 aggregate formation; format: functional; details: read-out: ED50 (the source's name)
PC-12 [17] = assay: Cytotoxicity against rat PC-12 cells; format: functional; details: read-out: LD50 (the source's name)
Geotrichum candidum = assay: Antifungal activity against Geotrichum candidum; format: functional
Bacillus subtilis = assay: Antibacterial activity against Bacillus subtilis; format: functional
Pseudomonas aeruginosa = assay: Antibacterial activity against Pseudomonas aeruginosa; format: functional
Escherichia coli = assay: Antibacterial activity against Escherichia coli; format: functional
Streptococcus pyogenes = assay: Antibacterial activity against Streptococcus pyogenes; format: functional
Rattus norvegicus = species on record: Rattus norvegicus; assay: Anticonvulsant activity in tryptamine seizure potentiated Wistar rat; format: functional
Mus musculus [18] = assay: Antihyperglycemic activity in db/db mouse assessed as decrease in blood glucose level at 100 mg/kg; format: functional; design: scale not given: the % may be the effect or the level left
Mus musculus [19] = assay: Antihyperglycemic activity in db/db mouse assessed as decrease in blood glucose level at 2 mg/kg; format: functional; design: scale not given: the % may be the effect or the level left
Mus musculus [20] = assay: Antihyperglycemic activity in db/db mouse assessed as decrease in blood glucose level at 20 mg/kg; format: functional; design: scale not given: the % may be the effect or the level left
Alpha-glucosidase = Alpha-glucosidase (Saccharomyces cerevisiae S288c, UniProt P53341+P38158+P07265); assay: Inhibition of Saccharomyces cerevisiae alpha glucosidase; format: protein assay
Mus musculus [21] = species on record: Mus musculus; assay: Antihyperglycemic activity in mouse assessed as reduction in serum glucose ratio after 2 hrs; format: functional; design: scale not given: the % may be the effect or the level left
[22] = Inhibition of porcine alpha amylase; design: species or system Sus scrofa
Mus musculus [23] = species on record: Mus musculus; assay: Antihyperglycemic activity in mouse assessed as reduction in serum glucose ratio after 7 days; format: functional; design: scale not given: the % may be the effect or the level left; details: time 7 day

Work on `NC(=S)N1N=C(N)/C(=C\c2cc(-c3ccc(Cl)cc3)nn2-c2ccccc2)C1=O` yielded an IC50 [1] of 6300 nM.

For `Cc1cccc(C)c1/C=N/c1c(C)n(C)n(-c2ccccc2)c1=O`, the “inhibition (INH)” value [2] was 42.3%, the IC50 (Acetylcholinesterase) was 57 nM and the inhibition [3] was 96.3%.

Work on `Cc1c(-c2cc(C#N)c(N)o2)c(=O)n(-c2ccccc2)n1C` yielded a Ki [4] of 766 nM, a Ratio Ki (Homo sapiens) of 2210 and an IC50 [5] of 7.99 nM. The Ki [6] was 0.346 nM and the IC50 [7] was 45.4 nM.

For `Cc1c(C(=O)CC(C#N)C#N)c(=O)n(-c2ccccc2)n1C`, the Ki [4] was 121 nM, the Ratio Ki (Homo sapiens) was 8670 and the IC50 [5] was 2340 nM. It also gave a Ki [6] of 0.014 nM and an IC50 [7] of 132 nM.

`CC1=NN(NCC(=O)c2ccccc2)C(=O)/C1=N/Nn1c(-c2ccccc2)nc2ccccc2c1=O` gave an MIC [8] of 3.11 µg/mL (≈ 6.49 µM) and a selectivity ratio [9] of 26.4.

`O=C1CC(NC(=O)CN2CCNCC2)=NN1` showed a selectivity ratio [10] of 631 and an IC50 [11] of under 440 nM.

With `Cc1c(/N=C/c2ccc(OCCCN(C)C)cc2)c(=O)n(-c2ccccc2)n1C` the IC50 [12] was 49 nM, the “inhibition (INH)” value [2] was 38.1% and the inhibition [3] was 35.3%.

For `Cn1cc(-c2[nH][nH]c(=O)c2-c2cn(C)c3ccccc23)c2ccccc21`, the IC50 [13] was 34 nM.

For `CC1=NN(c2ccccc2)C(=O)/C1=C\c1cn(-c2ccccc2)nc1-c1ccc(Cl)c(Cl)c1`, the Activity (Mus musculus [14]) was 79.76%.

In the case of `Cc1ccc(C2=NN(c3ccccc3)C(=O)C23N=C([S@@+](C)[O-])N(C(=O)OC(C)(C)C)[C@]32C(=O)N(Cc3ccccc3)c3ccccc32)cc1` (some centres not stated), the IC50 (Liver carboxylesterase 1) is reported as 390 nM.

Compound `C[C@@H]1C[C@H]2O[C@@H]2/C=C\C=C\C(=O)Cc2c(Cl)c(O)cc(O)c2C(=O)O1` [RADICICOL] has an Activity (PC-12 [15]) of 80%.

`O=C1CC(NC(=O)CNc2ccc(Cl)cc2)=NN1` showed a selectivity ratio [10] of 633 and an IC50 [11] of under 370 nM.

`Cc1cc(SCc2cc(=O)[nH][nH]2)c(Cl)cc1Cl` showed an EC50 (PC-12 [16]) of 400 nM and a CC50 (PC-12 [17]) of over 100000 nM.

`CC(=O)N1N=C(C)/C(=N/Nc2cc(Cl)cc(Cl)c2)C1=O` gave an MIC (Geotrichum candidum) of over 200 µg/mL, an MIC (Bacillus subtilis) of at most 12.5 µg/mL and an MIC (Pseudomonas aeruginosa) of at most 12.5 µg/mL. It also gave an MIC (Escherichia coli) of over 200 µg/mL and an MIC (Streptococcus pyogenes) of at most 12.5 µg/mL.

Compound `C#CCN(C)[C@H](C)Cc1ccccc1` [SELEGILINE] has an ED50 (Rattus norvegicus) of 300 nM.

For `CSc1ccc(Cc2c(C(F)(F)F)n[nH]c2O)cc1`, the Activity (Mus musculus [18]) was 68%, the Activity (Mus musculus [19]) was 30% and the Activity (Mus musculus [20]) was 57%.

In the case of `Cc1c(C(=O)CS(=O)(=O)c2ccccc2)c(=O)n(-c2ccccc2)n1C`, the IC50 (Alpha-glucosidase) is reported as 63660 nM, the Activity (Mus musculus [21]) is reported as 32.16% and the IC50 [22] is reported as 14700 nM. The Activity (Mus musculus [23]) was 13.34%.
